Measured values as given in US9393221B2, “Methods and compounds for reducing intracellular lipid storage” (THE GENERAL HOSPITAL CORPORATION, priority 2011, dated 2016).
Structures can show the parent of a compound that is named as a salt.

System: ATGL-KO iPSCs
Experiment: High throughput iPSC chemical screening, Oil Red O (ORO) lipid accumulation; for Z-score: test concentration or dose not given here
Assay type: cell-based, mouse
Details: not given

Row | SMILES | Z-score
1 | Cc1c(C)c2c(c(C)c1O)CC[C@@](C)(CCC[C@H](C)CCC[C@H](C)CCCC(C)C)O2 [Tocopherol (R,S)] | −1.721

Same assay, conditions: glycolytic switch compounds

Row | SMILES | Rank in normalized ORO score from screen
2 | Clc1ccc(CSC(Cn2ccnc2)c2ccc(Cl)cc2Cl)cc1 (centres unmarked) [Sulconazole nitrate] | 372
3 | CC/C(=C(\c1ccccc1)c1ccc(OCCN(C)C)cc1)c1ccccc1 [Tamoxifen citrate] | 130
4 | CCC(=O)O[C@H]1CC[C@H]2[C@@H]3CCC4=CC(=O)CC[C@]4(C)[C@H]3CC[C@]12C [Testosterone propionate] | 857

Same assay, conditions: normalized ORO level vs DMSO-treated cells; compound present during 7 days differentiation, 96-well; negative = decrease in lipid accumulation

Row | SMILES | Z-score
5 | CC(=O)S[C@@H]1CC2=CC(=O)CC[C@]2(C)[C@H]2CC[C@@]3(C)[C@@H](CC[C@@]34CCC(=O)O4)[C@H]12 [Spironolactone] | −1.7632
6 | C[N+]1(C)CCC[C@H]1C(=O)[O-].Cl [Stachydrine hydrochloride] | 0.2248
7 | [H]/N=C(/N)N[C@H]1[C@H](O)[C@@H](O)[C@H](O[C@@H]2O[C@@H](C)[C@](O)(C=O)[C@H]2O[C@@H]2O[C@@H](CO)[C@H](O)[C@@H](O)[C@@H]2NC)[C@@H](N/C(N)=N\[H])[C@@H]1O [Streptomycin sulfate] | 1.417
8 | C[C@]12CC[C@H]3[C@@H](CC[C@]4(O)C[C@@H](O)CC[C@]34C=O)[C@@]1(O)CC[C@@H]2C1=CC(=O)OC1 [Strophanthidin] | 0.6732
9 | C[C@@H]1O[C@@H](O[C@H]2C[C@@H](O)[C@]3(CO)[C@H]4[C@H](O)C[C@]5(C)[C@@H](C6=CC(=O)OC6)CC[C@]5(O)[C@@H]4CC[C@]3(O)C2)[C@H](O)[C@H](O)[C@H]1O.O.O.O.O.O.O.O.O [Strophantine octahydrate] | 3.188
10 | O=C(O)CCC(=O)Nc1ccc(S(=O)(=O)Nc2nccs2)cc1 [Succinylsulfathiazole] | 1.139
11 | Clc1ccc(CSC(Cn2ccnc2)c2ccc(Cl)cc2Cl)cc1 (centres unmarked) [Sulconazole nitrate] | −0.6576
12 | Nc1ccc(S(=O)(=O)NC(=O)c2ccccc2)cc1 [Sulfabenzamide] | 1.96
13 | CC(=O)[N-]S(=O)(=O)c1ccc(N)cc1.O.[Na+] [Sulfacetamide sodic hydrate] | −0.3059
14 | Nc1ccc(S(=O)(=O)Nc2ccc(Cl)nn2)cc1 [Sulfachloropyridazine] | 1.134
15 | Nc1ccc(S(=O)(=O)Nc2ncccn2)cc1 [Sulfadiazine] | 0.09783
16 | COc1cc(NS(=O)(=O)c2ccc(N)cc2)nc(OC)n1 [Sulfadimethoxine] | 0.4077
17 | COc1ncnc(NS(=O)(=O)c2ccc(N)cc2)c1OC [Sulfadoxine] | −0.1202
18 | [H]/N=C(/N)NS(=O)(=O)c1ccc(N)cc1 [Sulfaguanidine] | 1.05
19 | Cc1ccnc(NS(=O)(=O)c2ccc(N)cc2)n1 [Sulfamerazine] | −0.0984
20 | COc1cnc(NS(=O)(=O)c2ccc(N)cc2)nc1 [Sulfameter] | −0.1501
21 | Cc1cc(C)nc(NS(=O)(=O)c2ccc(N)cc2)n1 [Sulfamethazine sodium salt] | 1.431
22 | Cc1nnc(NS(=O)(=O)c2ccc(N)cc2)s1 [Sulfamethizole] | −0.7734
23 | Cc1cc(NS(=O)(=O)c2ccc(N)cc2)no1 [Sulfamethoxazole] | −0.4061
24 | COc1ccc(NS(=O)(=O)c2ccc(N)cc2)nn1 [Sulfamethoxypyridazine] | −0.0234
25 | COc1cc(NS(=O)(=O)c2ccc(N)cc2)ncn1 [Sulfamonomethoxine] | −1.3171
26 | Nc1ccc(S(N)(=O)=O)cc1 [Sulfanilamide] | 0.2959
27 | Nc1ccc(S(=O)(=O)Nc2ccnn2-c2ccccc2)cc1 [Sulfaphenazole] | −0.2854
28 | Nc1ccc(S(=O)(=O)Nc2ccccn2)cc1 [Sulfapyridine] | 0.5256
29 | Nc1ccc(S(=O)(=O)Nc2cnc3ccccc3n2)cc1 [Sulfaquinoxaline sodium salt] | 0.579

Row | SMILES | Z-score
30 | O=C(O)c1cc(/N=N/c2ccc(S(=O)(=O)Nc3ccccn3)cc2)ccc1O [Sulfasalazine] | −1.0569
31 | Nc1ccc(S(=O)(=O)Nc2nccs2)cc1 [Sulfathiazole] | 0.1226
32 | O=C1C(CC[S+]([O-])c2ccccc2)C(=O)N(c2ccccc2)N1c1ccccc1 (centres unmarked) [Sulfinpyrazone] | −1.4016
33 | Cc1noc(NS(=O)(=O)c2ccc(N)cc2)c1C [Sulfisoxazole] | −0.0512
34 | CC1=C(CC(=O)O)c2cc(F)ccc2/C1=C\c1ccc([S+](C)[O-])cc1 (centres unmarked) [Sulindac] | 1.451
35 | COc1cc([S+](C)[O-])ccc1-c1nc2ncccc2[nH]1 (centres unmarked) [Sulmazole] | 0.4097
36 | CCCCCCCCNC(C)C(O)c1ccc(SC(C)C)cc1 (centres unmarked) [Suloctidil] | 21.8147
37 | CCN1CCCC1CNC(=O)c1cc(S(N)(=O)=O)ccc1OC (centres unmarked) [Sulpiride] | −0.2187
38 | CC(C(=O)O)c1ccc(C(=O)c2cccs2)cc1 (centres unmarked) [Suprofen] | −0.7501
39 | CCCCC1(COC(=O)CCC(=O)O)C(=O)N(c2ccccc2)N(c2ccccc2)C1=O [Suxibuzone] | −1.3282
40 | CCOC(=O)Oc1c(OC)cc(C(=O)O[C@@H]2C[C@@H]3CN4CCc5c([nH]c6cc(OC)ccc56)[C@H]4C[C@@H]3[C@H](C(=O)OC)[C@H]2OC)cc1OC [Syrosingopine] | 0.3519
41 | Cl.O=c1[nH]oc2c1CCNC2 [THIP Hydrochloride] | −1.3776
42 | Nc1c2c(nc3ccccc13)CCCC2 [Tacrine hydrochloride hydrate] | −2.143
43 | CC1(C)S[C@@H]2[C@H](NC(=O)[C@H](N)c3ccccc3)C(=O)N2[C@H]1C(=O)OC1OC(=O)c2ccccc21 (some centres unmarked) [Talampicillin hydrochloride] | −0.9508
44 | CC/C(=C(\c1ccccc1)c1ccc(OCCN(C)C)cc1)c1ccccc1 [Tamoxifen citrate] | −1.1882
45 | Cc1scc2c1N(C(=O)CN1CCN(C)CC1)c1ccccc1NC2=O [Telenzepine dihydrochloride] | 0.2257
46 | CN1C(C(=O)Nc2ccccn2)=C(O)c2sccc2S1(=O)=O [Tenoxicam] | −0.5016
47 | COc1cc2nc(N3CCN(C(=O)C4CCCO4)CC3)nc(N)c2cc1OC (centres unmarked) [Terazosin hydrochloride] | −0.0723
48 | CC(C)N1CCN(c2ccc(OCC3COC(Cn4cncn4)(c4ccc(Cl)cc4Cl)O3)cc2)CC1 (centres unmarked) [Terconazole] | −0.3786
49 | CC(C)(C)c1ccc(C(O)CCCN2CCC(C(O)(c3ccccc3)c3ccccc3)CC2)cc1 (centres unmarked) [Terfenadine] | −0.8896
50 | CCC(=O)O[C@H]1CC[C@H]2[C@@H]3CCC4=CC(=O)CC[C@]4(C)[C@H]3CC[C@]12C [Testosterone propionate] | 0.7489
51 | CCCCNc1ccc(C(=O)OCCN(C)C)cc1.Cl [TetracaOne hydrochloride] | −0.5979
52 | CN(C)[C@@H]1C(O)=C(C(N)=O)C(=O)[C@@]2(O)C(O)=C3C(=O)c4c(O)cccc4[C@@](C)(O)[C@H]3C[C@@H]12 [Tetracycline hydrochloride] | −0.2579
53 | O.O=C1C(O)=C(O)C(=O)C(O)=C1O [Tetrahydroxy-1,4-quinone monohydrate] | −1.5885
54 | c1ccc2c(c1)CCCC2C1=NCCN1 (centres unmarked) [Tetrahydrozoline hydrochloride] | −0.9102

Row | SMILES | Z-score
55 | c1ccc(C2CN3CCSC3=N2)cc1 (centres unmarked) [Tetramisole hydrochloride] | 0.1333
56 | COc1ccc2cc1Oc1ccc(cc1)C[C@H]1c3cc(c(OC)cc3CCN1C)Oc1c(OC)c(OC)cc3c1[C@H](C2)N(C)CC3 [Tetrandrine] | −1.1905
57 | O=C1CCC(N2C(=O)c3ccccc3C2=O)C(=O)N1 (centres unmarked) [Thalidomide] | −1.026
58 | Cn1cnc2c1c(=O)[nH]c(=O)n2C [Theobromine] | 0.09359
59 | Cn1c(=O)c2[nH]cnc2n(C)c1=O.O [Theophylline monohydrate] | 0.7001
60 | Cc1ncc(C[n+]2csc(CCO)c2C)c(N)n1 [Thiamine hydrochloride] | 1.576
61 | CS(=O)(=O)c1ccc([C@@H](O)[C@@H](CO)NC(=O)C(Cl)Cl)cc1 [Thiamphenicol] | 16.8903
62 | COc1c(O[C@@H]2O[C@H](CO)[C@@H](O)[C@H](O)[C@H]2O)cc2c(c1OC)-c1ccc(SC)c(=O)cc1[C@@H](NC(C)=O)CC2 [Thiocolchicoside] | 11.5611
63 | S=C(NC1CCCCC1)N1CCC(c2cnc[nH]2)CC1 [Thioperamide maleate] | −0.6114
64 | CSc1ccc2c(c1)N(CCC1CCCCN1C)c1ccccc1S2 (centres unmarked) [Thioridazine hydrochloride] | −1.1212
65 | O=C(O)CNC(=O)C(CS)Cc1ccccc1 (centres unmarked) [Thiorphan] | 1.245
66 | C=C(NC(=O)C(=C)NC(=O)c1csc(C2=N[C@@H]3c4csc(n4)[C@H]4NC(=O)c5csc(n5)[C@H]([C@](C)(O)[C@@H](C)O)NC(=O)[C@H]5CSC(=N5)/C(=C/C)NC(=O)[C@H]([C@@H](C)O)NC(=O)c5csc(n5)[C@]3(CC2)NC(=O)[C@H](C)NC(=O)C(=C)NC(=O)[C@H](C)NC(=O)[C@H]([C@@H](C)CC)N[C@@H]2C=Cc3c([C@H](C)O)cc(nc3[C@H]2O)C(=O)O[C@@H]4C)n1)C(N)=O [Thiostrepton] | 13.9158
67 | CCCCCCCCCCCCCCCC[N+](C)(C)CCN(Cc1ccc(OC)cc1)c1ncccn1 [Thonzonium bromide] | 2.814
68 | N[C@@H](Cc1cc(I)c(Oc2cc(I)c(O)c(I)c2)c(I)c1)C(=O)O [Thyroxine (L)] | 0.1955
69 | c1ccc2[nH]c(-c3cscn3)nc2c1 [Tiabendazole] | −0.3752
70 | CCN(CC)CCNC(=O)c1cc(S(C)(=O)=O)ccc1OC [Tiapride hydrochloride] | −1.0178
71 | CC(C(=O)O)c1ccc(C(=O)c2ccccc2)s1 (centres unmarked) [Tiaprofenic acid] | −0.6271
72 | CC1(C)S[C@@H]2[C@H](NC(=O)[C@H](C(=O)O)c3ccsc3)C(=O)N2[C@H]1C(=O)O [Ticarcillin sodium] | −0.1446
73 | Clc1ccccc1CN1CCc2sccc2C1 [Ticlopidine hydrochloride] | −1.0702
74 | CCNC1(c2cccs2)CCCCC1=O.Cl (centres unmarked) [Tiletamine hydrochloride] | 1.2858
75 | CCS(=O)(=O)CCn1c([N+](=O)[O-])cnc1C [Tinidazole] | −0.3977
76 | NC[C@H]1O[C@H](O[C@H]2[C@H](O)[C@@H](O[C@H]3O[C@H](CO)[C@@H](O)[C@H](N)[C@H]3O)[C@H](N)C[C@@H]2N)[C@H](N)C[C@@H]1O [Tobramycin] | 1.694
77 | Cc1cccc(C)c1NC(=O)C(C)N (centres unmarked) [Tocainide hydrochloride] | 0.6038
